The values below come from ChEMBL document CHEMBL1201862, “PubChem BioAssay data set” (2004).

Where “and” joins values, the source holds several entries; their conditions need not be identical. Equal values may be shown once.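 Dose response: 5 concentrations. Exposure: 48 h. Format: 96-well plates. Endpoint: linear interpolation; highest concentration if not reached. GI50 = concentration required for 50% inhibition of growth.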 Calls of active or inactive are those of the source. Cut-off read from the data, not from the text of the source: active = GI50 up to about 1.1 µM and inactive = higher.

Test systems include MOLT-4; RXF 393; HL-60; DU-145; NCI-H226; SK-MEL-28; OVCAR-4; CAKI-1; RPMI-8226; EKVX; HOP-62; LOX IMVI; SN12C; OVCAR-5; KM12; NCI/ADR-RES; OVCAR-8; MDA-N; SK-MEL-2.
Assay in all cases: inhibition of tumour cell growth, NCI panel, 48 h

Take `COC1=CC(=O)C2=C(C[C@@]3(C)C(=C2)C(CO)=CC[C@H]3O)C1=O`: the GI50 is 0.0975 µM (active) with MOLT-4; 16.4 µM (inactive) in the experiment with RXF 393; 1.79 µM (inactive) in the experiment on HL-60; 38.9 µM (inactive) in the experiment with DU-145; 14 µM (inactive) in the experiment with NCI-H226; 29.6 µM (inactive) in the experiment on SK-MEL-28. The GI50 in the experiment on OVCAR-4 was 17.9 µM (inactive); in the experiment with CAKI-1, 73.3 µM (inactive); in the experiment on RPMI-8226, 18.4 µM (inactive); in the experiment on EKVX it was 21.8 µM (inactive); in the experiment with HOP-62, 25.2 µM (inactive); in the experiment on LOX IMVI it was 17.1 µM (inactive). The GI50 in the experiment on SN12C is 17.8 µM (inactive); in the experiment on OVCAR-5, 27 µM (inactive); in the experiment with KM12, 31.4 µM (inactive); in the experiment on NCI/ADR-RES, 23.5 µM (inactive); in the experiment on OVCAR-8, 18.2 µM (inactive); in the experiment with MDA-N it was 19 µM (inactive).

As for `O=C(Cc1ccccc1)NN1C(=O)/C(=C\c2cccc(O)c2)S/C1=N\c1ccccc1`, the GI50 in the experiment with RXF 393, with DU-145, in the experiment with NCI-H226, in the experiment on SK-MEL-2, in the experiment on SK-MEL-28 and in the experiment on OVCAR-4 was > 100 µM (inactive) each time. The GI50 with EKVX, with HOP-62, with SN12C, with OVCAR-5, in the experiment with KM12 and with NCI/ADR-RES was > 100 µM (inactive) throughout. Further, the GI50 with OVCAR-8 and in the experiment on MDA-N was > 100 µM (inactive) each time.

Take `Sc1nnc(CNc2ccc(-c3nnc(S)n3-c3ccc(Cl)cc3)cc2)n1-c1ccc(Cl)cc1`: the GI50 is 26.2 µM (inactive) in the experiment with MOLT-4; 45.4 µM (inactive) in the experiment with RXF 393; 30.5 µM (inactive) in the experiment on DU-145; 40.7 µM (inactive) in the experiment with NCI-H226; 22.4 µM (inactive) in the experiment with SK-MEL-2; 25.8 µM (inactive) with SK-MEL-28. The GI50 was 29.5 µM (inactive) in the experiment with OVCAR-4; 19.4 µM (inactive) with CAKI-1; 16.7 µM (inactive) in the experiment with RPMI-8226; 45.3 µM (inactive) with EKVX; 18.5 µM (inactive) with HOP-62; 24.2 µM (inactive) in the experiment on SN12C. Further, the GI50 with OVCAR-5 is 18.1 µM (inactive); in the experiment with KM12 it was 18.5 µM (inactive); with NCI/ADR-RES, > 100 µM (inactive); in the experiment with MDA-N, 26.1 µM (inactive).

As to `NC12CC3CC4C1CC1CC2C(C3)C4(N)C1`, the GI50 with MOLT-4, in the experiment with RXF 393, in the experiment with HL-60, in the experiment with DU-145, in the experiment with NCI-H226 and with SK-MEL-2 was > 100 µM (inactive) in each case. Further, the GI50 in the experiment with SK-MEL-28, in the experiment with OVCAR-4, with CAKI-1, in the experiment with EKVX, with HOP-62 and with LOX IMVI was > 100 µM (inactive) each time. Moreover, the GI50 with SN12C, in the experiment on OVCAR-5, in the experiment on KM12, with NCI/ADR-RES, with OVCAR-8 and with MDA-N was > 100 µM (inactive) throughout.

Consider `O=C1c2ccccc2-c2c1c(-c1ccccc1)c1n2C2(C(=O)c3ccccc3C2=O)C2C(=O)N(c3ccccc3)C(=O)C12` (stereo not drawn), for which the GI50 in the experiment with MOLT-4 was 40.6 µM (inactive); in the experiment on RXF 393, 17.6 µM (inactive); with DU-145, 28.5 µM (inactive); in the experiment with NCI-H226, 19.3 µM (inactive); in the experiment with SK-MEL-2, 22.6 µM (inactive); in the experiment on SK-MEL-28, 28.9 µM (inactive). The GI50 was 31.4 µM (inactive) with OVCAR-4; 34.4 µM (inactive) in the experiment on CAKI-1; 24 µM (inactive) in the experiment on EKVX; 26.3 µM (inactive) in the experiment with HOP-62; 17 µM (inactive) with LOX IMVI; 19.9 µM (inactive) in the experiment on SN12C. In addition, the GI50 is 17.4 µM (inactive) in the experiment on OVCAR-5; 19.8 µM (inactive) in the experiment on KM12; 74.6 µM (inactive) with NCI/ADR-RES; 32.2 µM (inactive) with OVCAR-8; 24.7 µM (inactive) in the experiment on MDA-N.

As for `Cc1ccc(NC(=O)/C(CC2Nc3c(ccc4c3C(=O)c3ccccc3C4=O)NC2O)=N/NC(C)(C)C)cc1` (stereo not drawn), the GI50 was 2.37 µM (inactive) with MOLT-4; 11.1 µM (inactive) in the experiment on RXF 393; 3.97 µM (inactive) in the experiment with HL-60; 7.36 µM (inactive) in the experiment with DU-145; 18.9 µM (inactive) with SK-MEL-2; 12.1 µM (inactive) with SK-MEL-28. Further, the GI50 was 17.7 µM (inactive) in the experiment on OVCAR-4; 8.3 µM (inactive) with CAKI-1; 10 µM (inactive) in the experiment with EKVX; 13.8 µM (inactive) in the experiment on HOP-62; 7.23 µM (inactive) with LOX IMVI; 12.6 µM (inactive) in the experiment with SN12C. For the same molecule, the GI50 with OVCAR-5 is 26.5 µM (inactive); with KM12, 8.85 µM (inactive); in the experiment on NCI/ADR-RES, 1.67 µM (inactive); with OVCAR-8, 6.52 µM (inactive); with MDA-N, 14.1 µM (inactive).

As to `Cc1ccc2c(=O)cc(Cc3csc4ccccc34)[nH]c2n1`, the GI50 was 38.3 µM (inactive) in the experiment on MOLT-4; 25.3 µM (inactive) in the experiment on RXF 393; 50.9 µM (inactive) with DU-145; 18.1 µM (inactive) in the experiment on NCI-H226; 79.3 µM (inactive) with SK-MEL-2; 50.5 µM (inactive) with SK-MEL-28. The GI50 with OVCAR-4 was 21.1 µM (inactive); with CAKI-1 it was 44.3 µM (inactive); in the experiment on RPMI-8226 it was 22.3 µM (inactive); in the experiment on EKVX it was 29.2 µM (inactive); with HOP-62, 59.2 µM (inactive); with LOX IMVI it was 17.5 µM (inactive). For the same molecule, the GI50 with SN12C is 42.9 µM (inactive); in the experiment on OVCAR-5, 60 µM (inactive); in the experiment on KM12, 21.3 µM (inactive); in the experiment on NCI/ADR-RES, 19.8 µM (inactive); with OVCAR-8, 36 µM (inactive); with MDA-N, 64.7 µM (inactive).

As to `O=C(/C=C/c1ccccc1)c1ccccn1`, the GI50 in the experiment with MOLT-4 was 23.8 µM (inactive); in the experiment on RXF 393, 19.2 µM (inactive) and 18.6 µM (inactive); with DU-145, 12.4 µM (inactive) and 18.3 µM (inactive); in the experiment with NCI-H226, 16.6 µM (inactive) and 26.7 µM (inactive); in the experiment on SK-MEL-2, 19.2 µM (inactive); with SK-MEL-28, 17 µM (inactive) and 26.2 µM (inactive). The GI50 in the experiment with OVCAR-4 was 17.3 µM (inactive) and 20.6 µM (inactive); in the experiment on CAKI-1, 26.2 µM (inactive) and 16.6 µM (inactive); in the experiment with EKVX it was 22 µM (inactive) and 18.1 µM (inactive); in the experiment on LOX IMVI, 10.9 µM (inactive) and 17.6 µM (inactive); in the experiment with SN12C, 14.3 µM (inactive) and 17.2 µM (inactive); with KM12, 19.1 µM (inactive) and 14.4 µM (inactive). The GI50 in the experiment on NCI/ADR-RES was 22.2 µM (inactive) and 28.4 µM (inactive); in the experiment on OVCAR-8 it was 17.6 µM (inactive) and 25.1 µM (inactive); in the experiment on MDA-N, 16.9 µM (inactive) and 27.2 µM (inactive).
